Experimental findings from ChEMBL document CHEMBL1140446, “Designed multiple ligands. An emerging drug discovery paradigm” (J Med Chem, 2005) are described below.

Structures are written as SMILES. pIC50, pKd, pKi: −log10 of the molar value.

Data set [1] addresses T1, Substance-P receptor (Homo sapiens, UniProt P25103).
Description: Binding affinity towards tachykinin receptor 1
For data set [2], the target named is T2, Substance-K receptor (Homo sapiens, UniProt P21452).
T2 sequence (P21452 whole entry): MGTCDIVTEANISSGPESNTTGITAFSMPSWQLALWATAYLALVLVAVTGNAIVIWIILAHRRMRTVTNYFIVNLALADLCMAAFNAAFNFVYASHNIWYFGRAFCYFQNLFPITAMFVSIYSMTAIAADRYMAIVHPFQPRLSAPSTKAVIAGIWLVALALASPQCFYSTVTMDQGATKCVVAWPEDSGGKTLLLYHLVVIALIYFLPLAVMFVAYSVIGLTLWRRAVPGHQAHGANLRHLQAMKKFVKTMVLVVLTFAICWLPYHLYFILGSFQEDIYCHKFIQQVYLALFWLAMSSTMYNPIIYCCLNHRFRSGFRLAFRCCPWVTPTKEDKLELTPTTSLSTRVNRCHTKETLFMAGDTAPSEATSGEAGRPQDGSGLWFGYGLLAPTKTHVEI
Put plainly: Binding affinity towards tachykinin receptor 2.

Data set [3] has as its target T2, Substance-K receptor.
Description: Inhibitory concentration against tachykinin receptor 2
The target of data set [4] is T1, Substance-P receptor. Briefly: Inhibitory concentration against tachykinin receptor 1.
In data set [5] the target is Tyrosine-protein kinase ABL1 (Homo sapiens, UniProt P00519). Put plainly: Inhibitory concentration against v-Abl tyrosine kinase.
Data set [6] deals with T3, Histamine H1 receptor (Homo sapiens, UniProt P35367).
T3 sequence (P35367 whole entry): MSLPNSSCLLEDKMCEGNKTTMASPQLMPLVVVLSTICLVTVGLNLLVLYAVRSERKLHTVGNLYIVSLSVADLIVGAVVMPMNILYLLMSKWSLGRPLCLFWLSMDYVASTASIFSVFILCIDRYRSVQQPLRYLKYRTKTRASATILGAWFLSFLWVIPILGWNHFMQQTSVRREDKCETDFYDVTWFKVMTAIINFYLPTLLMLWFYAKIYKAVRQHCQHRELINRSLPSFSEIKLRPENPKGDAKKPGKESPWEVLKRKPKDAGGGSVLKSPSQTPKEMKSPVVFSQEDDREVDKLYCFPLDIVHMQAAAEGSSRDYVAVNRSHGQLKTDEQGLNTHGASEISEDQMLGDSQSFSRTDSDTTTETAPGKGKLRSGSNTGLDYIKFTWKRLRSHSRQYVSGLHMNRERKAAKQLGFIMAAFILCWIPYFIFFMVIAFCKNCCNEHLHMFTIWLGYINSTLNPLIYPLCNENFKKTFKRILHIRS
Description: Dissociation constant against histamine H1 receptor
Data set [7] concerns the target Cysteinyl leukotriene receptor 1 (Cavia porcellus, UniProt Q2NNR5). Put plainly: Inhibitory concentration against LTD4-induced contraction of guinea pig ileum at 10 uM concentration. It counts as tissue-based.
In data set [8] the target is Procathepsin L (Homo sapiens, UniProt P07711). Briefly: Inhibitory concentration against cathepsin L.
Procathepsin L, sequence (P07711 whole entry): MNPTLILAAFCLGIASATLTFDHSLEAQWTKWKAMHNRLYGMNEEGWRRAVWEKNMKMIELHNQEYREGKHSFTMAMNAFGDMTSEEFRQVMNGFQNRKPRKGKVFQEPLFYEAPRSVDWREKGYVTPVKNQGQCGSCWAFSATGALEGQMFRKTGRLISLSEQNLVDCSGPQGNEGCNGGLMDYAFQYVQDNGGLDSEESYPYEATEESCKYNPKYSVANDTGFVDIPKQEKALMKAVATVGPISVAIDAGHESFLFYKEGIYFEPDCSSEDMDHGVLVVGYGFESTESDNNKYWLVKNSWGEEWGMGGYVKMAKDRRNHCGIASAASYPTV
Data set [9] addresses T1, Substance-P receptor. The source holds these as a separate data set.
Description: Inhibitory concentration against neurokinin NK1 receptor
Data set [10] addresses T3, Histamine H1 receptor. The source holds these as a separate data set.
Description: Inhibitory concentration against histamine H1 receptor
Data set [11] has as its target Platelet-activating factor receptor (Homo sapiens, UniProt P25105).
Description: Inhibitory concentration against platelet activating factor receptor
Data set [12] has as its target T4, Adrenergic receptor alpha-1 (Homo sapiens, UniProt P35348+P25100+P35368).
T4 sequence (P35348 whole entry): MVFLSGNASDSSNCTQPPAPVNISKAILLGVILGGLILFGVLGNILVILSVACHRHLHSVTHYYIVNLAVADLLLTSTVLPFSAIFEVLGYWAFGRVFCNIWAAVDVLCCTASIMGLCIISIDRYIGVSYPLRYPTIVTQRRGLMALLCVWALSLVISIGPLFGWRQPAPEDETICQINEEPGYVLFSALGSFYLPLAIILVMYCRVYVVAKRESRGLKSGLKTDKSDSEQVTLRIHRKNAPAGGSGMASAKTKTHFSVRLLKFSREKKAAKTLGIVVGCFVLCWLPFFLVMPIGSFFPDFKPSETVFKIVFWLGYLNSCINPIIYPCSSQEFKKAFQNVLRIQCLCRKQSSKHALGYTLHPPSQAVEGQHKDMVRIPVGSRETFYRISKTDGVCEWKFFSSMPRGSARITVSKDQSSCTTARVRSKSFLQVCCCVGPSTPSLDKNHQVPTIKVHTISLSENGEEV
T4 sequence (P25100 whole entry): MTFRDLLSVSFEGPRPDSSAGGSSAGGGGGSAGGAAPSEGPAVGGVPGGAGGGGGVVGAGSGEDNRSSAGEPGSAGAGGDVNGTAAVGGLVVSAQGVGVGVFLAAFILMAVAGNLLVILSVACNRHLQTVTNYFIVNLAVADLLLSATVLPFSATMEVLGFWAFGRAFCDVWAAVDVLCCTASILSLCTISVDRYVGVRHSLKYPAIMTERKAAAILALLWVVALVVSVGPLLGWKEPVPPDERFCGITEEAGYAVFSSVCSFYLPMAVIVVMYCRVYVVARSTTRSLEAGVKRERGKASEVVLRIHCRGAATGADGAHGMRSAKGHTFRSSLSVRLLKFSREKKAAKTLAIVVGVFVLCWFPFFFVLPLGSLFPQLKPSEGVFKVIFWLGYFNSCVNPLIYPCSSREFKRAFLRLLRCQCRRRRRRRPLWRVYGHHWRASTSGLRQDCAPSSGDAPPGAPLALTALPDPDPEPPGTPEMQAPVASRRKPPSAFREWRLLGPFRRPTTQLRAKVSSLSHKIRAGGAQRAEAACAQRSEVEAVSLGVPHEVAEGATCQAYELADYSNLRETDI
T4 sequence (P35368 whole entry): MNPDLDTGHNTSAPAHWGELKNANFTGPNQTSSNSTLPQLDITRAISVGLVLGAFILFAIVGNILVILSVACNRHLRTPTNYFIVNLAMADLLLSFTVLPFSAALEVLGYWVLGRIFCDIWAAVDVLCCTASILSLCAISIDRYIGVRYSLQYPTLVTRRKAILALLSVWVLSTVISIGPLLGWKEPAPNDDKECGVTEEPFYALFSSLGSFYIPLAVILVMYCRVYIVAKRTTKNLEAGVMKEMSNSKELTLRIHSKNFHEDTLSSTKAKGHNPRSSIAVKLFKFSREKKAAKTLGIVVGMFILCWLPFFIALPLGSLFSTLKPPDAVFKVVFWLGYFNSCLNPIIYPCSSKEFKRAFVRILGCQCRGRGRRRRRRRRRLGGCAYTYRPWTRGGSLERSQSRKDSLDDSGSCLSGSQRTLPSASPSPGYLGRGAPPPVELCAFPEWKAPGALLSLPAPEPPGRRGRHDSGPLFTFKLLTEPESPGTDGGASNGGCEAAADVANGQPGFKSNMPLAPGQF
Briefly: Inhibition constant against alpha adrenergic receptor. It counts as protein assay.

Data set [13] addresses T5, D(2) dopamine receptor (Homo sapiens, UniProt P14416).
Description: Inhibition constant against dopamine receptor D2
Data set [14] deals with 5-hydroxytryptamine receptor 1D (Homo sapiens, UniProt P28221). Briefly: Inhibition constant against 5-hydroxytryptamine 1D receptor.
Data set [15] concerns the target 5-hydroxytryptamine receptor 1B (Homo sapiens, UniProt P28222).
Description: Inhibition constant against 5-HT 1B receptor
The target of data set [16] is T6, Sodium-dependent serotonin transporter (Homo sapiens, UniProt P31645).
T6 sequence (P31645 whole entry): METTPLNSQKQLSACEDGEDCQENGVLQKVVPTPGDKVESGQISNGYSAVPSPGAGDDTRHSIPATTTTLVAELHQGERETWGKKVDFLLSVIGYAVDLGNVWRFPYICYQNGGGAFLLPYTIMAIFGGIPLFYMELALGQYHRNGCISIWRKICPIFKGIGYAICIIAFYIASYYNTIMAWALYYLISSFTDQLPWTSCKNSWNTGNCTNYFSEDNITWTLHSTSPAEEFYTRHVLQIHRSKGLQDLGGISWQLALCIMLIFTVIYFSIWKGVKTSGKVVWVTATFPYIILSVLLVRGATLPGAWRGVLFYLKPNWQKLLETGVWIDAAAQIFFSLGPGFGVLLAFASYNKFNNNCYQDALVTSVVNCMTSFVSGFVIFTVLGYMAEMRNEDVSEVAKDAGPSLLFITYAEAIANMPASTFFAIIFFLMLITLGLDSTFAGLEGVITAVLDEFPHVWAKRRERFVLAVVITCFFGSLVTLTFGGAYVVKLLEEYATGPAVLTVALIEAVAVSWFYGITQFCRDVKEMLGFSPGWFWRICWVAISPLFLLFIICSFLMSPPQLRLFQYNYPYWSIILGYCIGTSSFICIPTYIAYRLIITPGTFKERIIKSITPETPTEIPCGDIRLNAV
Description: Inhibitory concentration against serotonin transporter
Data set [17] has as its target Acetylcholinesterase (Homo sapiens, UniProt P22303).
Description: Inhibitory concentration against acetylcholinesterase
Data set [18] concerns the target Adrenergic receptor alpha-1 (Homo sapiens) (UniProt P35348+P25100+P35368). Briefly: Inhibition constant against alpha adrenergic receptor at 0.1 uM concentration. It counts as protein assay.
The target of data set [19] is T6, Sodium-dependent serotonin transporter. The source holds these as a separate data set.
Description: Inhibition constant against serotonin transporter
In data set [20] the target is T7, 5-hydroxytryptamine receptor 1A (Homo sapiens, UniProt P08908).
T7 sequence (P08908 whole entry): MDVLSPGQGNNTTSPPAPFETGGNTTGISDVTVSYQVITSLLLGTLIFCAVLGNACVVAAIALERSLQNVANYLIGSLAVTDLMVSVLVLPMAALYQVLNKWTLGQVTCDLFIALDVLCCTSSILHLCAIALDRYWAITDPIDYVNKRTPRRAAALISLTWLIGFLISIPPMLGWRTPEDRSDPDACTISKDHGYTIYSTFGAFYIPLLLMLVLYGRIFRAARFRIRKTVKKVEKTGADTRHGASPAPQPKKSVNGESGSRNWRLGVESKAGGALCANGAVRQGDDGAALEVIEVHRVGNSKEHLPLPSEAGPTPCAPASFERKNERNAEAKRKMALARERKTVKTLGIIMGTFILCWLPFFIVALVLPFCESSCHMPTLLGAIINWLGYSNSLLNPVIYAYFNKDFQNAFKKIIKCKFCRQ
Put plainly: Inhibitory concentration against 5-hydroxytryptamine 1A receptor.

The target in data set [21] is 5-hydroxytryptamine receptor 2A (Homo sapiens, UniProt P28223).
5-hydroxytryptamine receptor 2A (Homo sapiens, UniProt P28223), sequence (P28223 whole entry): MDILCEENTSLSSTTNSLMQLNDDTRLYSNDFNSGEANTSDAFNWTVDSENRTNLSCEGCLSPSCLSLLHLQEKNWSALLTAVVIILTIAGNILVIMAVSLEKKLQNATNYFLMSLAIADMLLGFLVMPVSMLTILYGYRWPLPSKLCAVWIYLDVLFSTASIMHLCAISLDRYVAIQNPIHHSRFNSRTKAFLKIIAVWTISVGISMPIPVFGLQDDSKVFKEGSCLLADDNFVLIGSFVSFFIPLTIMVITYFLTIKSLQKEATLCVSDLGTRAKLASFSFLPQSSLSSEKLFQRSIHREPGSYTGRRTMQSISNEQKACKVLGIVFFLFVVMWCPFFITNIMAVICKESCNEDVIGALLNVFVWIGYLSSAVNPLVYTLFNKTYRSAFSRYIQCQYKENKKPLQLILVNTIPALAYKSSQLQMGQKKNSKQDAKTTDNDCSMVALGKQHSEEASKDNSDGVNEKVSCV
Description: Inhibitory concentration against 5-hydroxytryptamine 2 receptor
Data set [22] concerns the target T5, D(2) dopamine receptor. The source holds these as a separate data set.
Description: Inhibitory concentration against dopamine receptor D2
Data set [23] deals with T4, Adrenergic receptor alpha-1.
Description: Inhibitory concentration against alpha adrenergic receptor
Data set [24] is described as follows: Oral bioavailability. It counts as ADME, organism-based. Conditions: eutheria, in vivo.
The target of data set [25] is Histamine H2 receptor (Homo sapiens, UniProt P25021). Briefly: Negative logarithm of the drug concentration against H2 histamine receptor. The conditions noted are these: read-out: pA2 (converted).
Data set [26] concerns the target T8, Gastrin/cholecystokinin type B receptor (Homo sapiens, UniProt P32239). Briefly: Inhibitory concentration against gastrin receptor.
Data set [27] addresses T8, Gastrin/cholecystokinin type B receptor. Briefly: Inhibitory concentration against Cholecystokinin B receptor.
For data set [28], the target named is Angiotensin-converting enzyme (Homo sapiens, UniProt P12821). Put plainly: Inhibitory concentration against angiotensin I converting enzyme.
Data set [29] deals with Neprilysin (Homo sapiens, UniProt P08473).
Neprilysin, sequence (P08473 whole entry): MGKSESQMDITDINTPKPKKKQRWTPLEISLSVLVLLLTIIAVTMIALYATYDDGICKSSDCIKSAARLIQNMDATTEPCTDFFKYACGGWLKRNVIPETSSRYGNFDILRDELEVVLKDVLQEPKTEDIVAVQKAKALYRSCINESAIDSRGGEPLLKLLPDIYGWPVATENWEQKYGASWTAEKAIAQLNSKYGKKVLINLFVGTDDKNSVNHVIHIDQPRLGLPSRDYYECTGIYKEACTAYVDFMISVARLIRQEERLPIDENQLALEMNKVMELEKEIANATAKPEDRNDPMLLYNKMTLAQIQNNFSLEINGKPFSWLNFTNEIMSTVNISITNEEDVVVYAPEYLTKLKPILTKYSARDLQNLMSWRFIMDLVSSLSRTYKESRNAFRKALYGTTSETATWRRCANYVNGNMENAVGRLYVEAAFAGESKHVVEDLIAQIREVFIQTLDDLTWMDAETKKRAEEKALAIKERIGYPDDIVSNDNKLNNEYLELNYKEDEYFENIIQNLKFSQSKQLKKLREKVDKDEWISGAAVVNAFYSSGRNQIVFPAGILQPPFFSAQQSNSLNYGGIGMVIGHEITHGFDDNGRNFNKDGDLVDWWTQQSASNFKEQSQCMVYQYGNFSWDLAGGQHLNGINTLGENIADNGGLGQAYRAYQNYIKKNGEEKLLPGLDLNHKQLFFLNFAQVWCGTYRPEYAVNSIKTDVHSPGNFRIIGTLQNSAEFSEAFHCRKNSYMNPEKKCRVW
Description: Inhibitory concentration against neutral endopeptidase
The target in data set [30] is T1, Substance-P receptor. Briefly: Negative logarithm causing 50% receptor occupancy against tachykinin receptor 1.
Data set [31] deals with T6, Sodium-dependent serotonin transporter. Put plainly: Negative logarithm causing 50% receptor occupancy against serotonin transporter.
The target of data set [32] is T7, 5-hydroxytryptamine receptor 1A.
Description: Inhibition constant against 5-hydroxytryptamine 1A receptor
Data set [33] has as its target 5-hydroxytryptamine receptor 2A (Rattus norvegicus, UniProt P14842). Briefly: Inhibition constant against 5-Hydroxytryptamine 2 receptor in olfactory bulbectomized rat.
The target of data set [34] is Beta-2 adrenergic receptor (Homo sapiens, UniProt P07550). Briefly: Negative logarithm causing 50% receptor occupancy against beta-2 adrenergic receptor.
For data set [35], the target named is Sodium-dependent dopamine transporter (Homo sapiens, UniProt Q01959).
Description: Inhibitory concentration against dopamine transporter

T5 sequence (P14416 whole entry): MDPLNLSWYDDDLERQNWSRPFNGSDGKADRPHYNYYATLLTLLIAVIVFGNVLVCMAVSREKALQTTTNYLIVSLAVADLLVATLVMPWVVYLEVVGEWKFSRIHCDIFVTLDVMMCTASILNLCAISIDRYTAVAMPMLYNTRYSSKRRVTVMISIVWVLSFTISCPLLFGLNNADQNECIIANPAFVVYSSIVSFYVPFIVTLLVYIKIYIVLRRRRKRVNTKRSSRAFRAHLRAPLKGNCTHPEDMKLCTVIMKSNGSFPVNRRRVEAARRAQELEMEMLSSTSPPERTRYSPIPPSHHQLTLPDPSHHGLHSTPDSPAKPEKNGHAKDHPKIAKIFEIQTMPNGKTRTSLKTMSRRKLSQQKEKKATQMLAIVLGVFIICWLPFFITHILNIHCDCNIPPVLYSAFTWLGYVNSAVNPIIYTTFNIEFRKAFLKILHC
T1 sequence (P25103 whole entry): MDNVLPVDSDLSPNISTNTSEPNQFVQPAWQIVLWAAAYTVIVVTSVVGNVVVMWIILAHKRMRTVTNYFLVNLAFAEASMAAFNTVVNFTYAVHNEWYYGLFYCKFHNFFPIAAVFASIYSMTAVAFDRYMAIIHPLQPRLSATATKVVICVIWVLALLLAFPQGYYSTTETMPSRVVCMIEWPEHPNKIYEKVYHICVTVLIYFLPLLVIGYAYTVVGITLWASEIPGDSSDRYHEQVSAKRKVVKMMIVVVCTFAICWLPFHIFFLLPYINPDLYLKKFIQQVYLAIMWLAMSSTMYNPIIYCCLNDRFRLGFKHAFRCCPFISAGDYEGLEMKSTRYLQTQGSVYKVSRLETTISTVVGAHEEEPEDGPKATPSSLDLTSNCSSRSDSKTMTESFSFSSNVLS
Platelet-activating factor receptor, sequence (P25105 whole entry): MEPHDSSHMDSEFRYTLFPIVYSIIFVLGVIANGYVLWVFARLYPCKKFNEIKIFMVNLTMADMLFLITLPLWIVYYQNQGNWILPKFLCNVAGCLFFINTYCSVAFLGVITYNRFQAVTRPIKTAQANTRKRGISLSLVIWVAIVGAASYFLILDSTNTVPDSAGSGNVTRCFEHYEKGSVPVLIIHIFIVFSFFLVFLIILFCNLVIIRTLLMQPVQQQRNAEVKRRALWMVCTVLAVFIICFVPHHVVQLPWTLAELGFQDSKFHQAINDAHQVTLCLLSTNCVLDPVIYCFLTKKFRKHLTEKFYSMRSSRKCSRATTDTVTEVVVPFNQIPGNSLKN
Cysteinyl leukotriene receptor 1, sequence (Q2NNR5 whole entry): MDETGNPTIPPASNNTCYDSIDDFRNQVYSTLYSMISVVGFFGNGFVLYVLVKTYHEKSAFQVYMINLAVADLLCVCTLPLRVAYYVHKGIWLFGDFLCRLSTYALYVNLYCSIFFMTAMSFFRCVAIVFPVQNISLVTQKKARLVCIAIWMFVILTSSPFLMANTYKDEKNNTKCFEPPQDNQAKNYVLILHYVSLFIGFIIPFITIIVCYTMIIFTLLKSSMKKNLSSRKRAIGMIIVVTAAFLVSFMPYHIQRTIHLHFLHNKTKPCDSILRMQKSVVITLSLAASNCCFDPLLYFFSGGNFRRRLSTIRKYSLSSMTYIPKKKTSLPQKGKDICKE
T8 sequence (P32239 whole entry): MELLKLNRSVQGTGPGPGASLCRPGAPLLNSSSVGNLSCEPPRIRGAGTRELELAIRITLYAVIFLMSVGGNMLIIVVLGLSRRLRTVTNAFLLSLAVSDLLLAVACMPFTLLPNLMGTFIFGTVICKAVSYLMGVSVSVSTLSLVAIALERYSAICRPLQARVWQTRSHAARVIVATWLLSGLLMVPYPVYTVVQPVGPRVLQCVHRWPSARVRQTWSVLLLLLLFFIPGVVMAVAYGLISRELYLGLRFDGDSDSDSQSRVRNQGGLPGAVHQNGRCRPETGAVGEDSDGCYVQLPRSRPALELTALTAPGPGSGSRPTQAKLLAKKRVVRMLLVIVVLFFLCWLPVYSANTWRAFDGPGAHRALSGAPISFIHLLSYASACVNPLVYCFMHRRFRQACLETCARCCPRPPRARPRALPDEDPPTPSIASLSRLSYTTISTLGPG

In the case of `CN(C(=O)c1cc(C(F)(F)F)cc(C(F)(F)F)c1)[C@@H](/C=C/C(=O)NCCN1CCCCC1)Cc1ccc(Cl)cc1`, the pIC50 in data set [1] was 8.00; in data set [2] it was 7.31.

For the molecule `COc1cc(C(=O)N2CC[C@@](CCN3CCC(C(N)=O)(c4ccccc4)CC3)(c3ccc(Cl)c(Cl)c3)C2)cc(OC)c1OC`, the pIC50 was 8.08 in [3] and 8.51 in data set [4].

In the case of `O=C(Nc1cccc(Nc2nccc(-c3cccnc3)n2)c1)c1ccccc1`, the pIC50 in data set [5] was 6.40.

In data set [6], `O=C(N[C@H](CN1CCC(OC2c3ccccc3CCc3ccccc32)CC1)C(=O)O)OCc1ccccc1` gave a pKd of 6.39. In addition, the pIC50 in data set [7] was 5.81.

For `CC(C)C[C@H](CC(=O)NO)C(=O)N[C@@H](Cc1ccccc1)C(=O)N[C@@H](C)C=O`, the pIC50 in [8] is 7.60.

In [9], `COc1ccc(C2(CCN3CCC(C(=O)c4nc5ccccc5n4Cc4ccc(F)cc4)CC3)CCN(C(=O)c3cc(OC)c(OC)c(OC)c3)C2)cc1OC` (configuration not stated) had a pIC50 of 7.51.

`CC(=O)N1CCC(=C2c3ccc(Cl)cc3CCc3cccnc32)CC1` [SCH-37370]: the values for the pIC50 in [10] and in [11] were 7.00 and 6.08, respectively.

In the case of `C[C@@H]1CN(c2cccc3cc(F)ccc23)CCN1CCC1OCCc2c1sc(C(N)=O)c2Cl` (some centres not stated), the Ki in data set [12] is reported as 140 nM. In addition, the results for the pKi in data set [13], in [14] and in data set [15] were 6.54, 7.35 and below 6.00, respectively. For the same molecule, in [16], the pIC50 was 8.68.

Turning to `CN[C@@H](CCOc1ccc([N+](=O)[O-])cc1)c1ccc(OC(=O)N(C)C)cc1`, the pIC50 in data set [17] was 7.00; in data set [16], 7.38.

For `Fc1cc2c(c(OCCNCCCc3c[nH]c4ccc(F)cc34)c1)OCCC2`, the inhibition in data set [18] stood at 79%. This molecule also gave a pKi in [19] of 9.30.

In the case of `O=C1Cc2cc(CCN3CCN(c4cccc5ccccc45)CC3)ccc2N1`, the pIC50 in data set [20] was 8.30; in data set [21] it was 7.70; in data set [22], 7.36. The same molecule had an IC50 in data set [23] of 45 nM.

`OC(CCc1ccccc1)CN1CCC2(CC1)OCc1c2ccc2ccccc12` (configuration not stated) displayed a bioavailability in [24] of 65%. In [19], this molecule gave a pKi of 8.00.

As for `CN1C(=O)[C@H](NC(=O)Nc2ccc(CC(=O)NCCC(=O)NCCCOc3cccc(CN4CCCCC4)c3)cc2)N=C(c2ccccc2)c2ccccc21`, in data set [25], the Kb was 251 nM. The values for the pIC50 in [26] and in data set [27] were 6.87 and 6.54, respectively.

In the case of `O=C(N[C@H]1Cc2ccccc2C2CCC[C@H](C(=O)O)N2C1=O)[C@H](S)Cc1ccccc1` (some centres not stated), the pIC50 in [28] is 9.96; in [29] it was 10.10.

Turning to `O=C(CCc1cc(C(F)(F)F)cc(C(F)(F)F)c1)N(c1ccc(F)cc1)C1CCNCC1`, the values for the pKi in data set [30] and in data set [31] were 6.70 and 6.60, respectively.

`O=C(O)CCNC(=O)C(CS)Cc1ccccc1` (configuration not stated): the pIC50 in data set [28] is 4.49; in data set [29] it was 8.03.

As for `COc1cc(C(=O)N2CC[C@](CCN3CCC(C(N)=O)(c4ccccc4)CC3)(c3ccc(Cl)c(Cl)c3)C2)cc(OC)c1OC`, the results for the pIC50 in data set [9] and in data set [10] were below 5.00 and 8.52, respectively.

Take `COc1cccc2c1CCC[C@H]2CN(C)CCc1ccc2ccoc2c1`: the pKi in data set [32] is 8.70; in [33] it was 6.84.

For `NC(=O)c1ccc2c(c1)CCOC2CCN1CC=C(c2c[nH]c3cc(F)ccc23)CC1` (configuration not stated), the Ki in data set [12] is recorded as 16 nM. The same molecule had a pKi in data set [13] of 8.33. The molecule further gave a pIC50 in data set [16] of 9.96.

Consider `Cc1ccc2c(OCCN3CCC(Cc4ccc5c(c4)NC(=O)CO5)CC3)cccc2n1`, for which the “Log Ki” value in data set [34] is below -6.3. For the same molecule, in [31], the pKi is 8.20.

`c1ccc2c(N3CCNCC3)cccc2c1`: the pIC50 in data set [21] was 7.21; in [22] it was below 6.00.

For `NC(=O)C1(c2ccccc2)CCN(CC[C@@]2(c3ccc(Cl)c(Cl)c3)CCN(C(=O)c3ccccc3)C2)CC1`, the pIC50 in [3] is 8.65; in data set [4], 6.79.

In data set [11], `Cc1cncc(CN2CCC(=C3c4ccc(Cl)cc4CCc4cccnc43)CC2)c1` [RUPATADINE] had a pIC50 of 5.43.

Regarding `CN(C)C[C@@H]1C2CCC(CC2)[C@@H]1c1cccc(Cl)c1`, the pIC50 is 7.55 in [35] and 6.57 in [16].

Molecule `CN1CCC(=C2c3ccccc3C=Cc3ccccc32)CC1` [CYPROHEPTADINE] gave a pIC50 in [7] below 4.00.
